This note sets out measurements from ChEMBL document CHEMBL3425465, “Synthesis, antimalarial and antitubercular activities of meridianin derivatives” (Eur J Med Chem, 2015).

What is called MIC90 is the lowest concentration that inhibits either 90% of growth or 90% of the strains tested, depending on the study.

Data set [1] has as its system Mycobacterium tuberculosis. The data set is described as follows: Antitubercular activity against Mycobacterium tuberculosis H37Rv assessed as […] inhibition after 7 days by broth microdilution assay. It counts as functional. The note with it: 168 h. For orientation: Broth dilution looks for growth in wells or tubes with falling amounts of substance.
Data set [2] concerns Plasmodium falciparum. The data set is described as follows: Antiplasmodial activity against Plasmodium falciparum D6 infected in human RBC assessed as parasite growth inhibition measured as LDH activity after 72 hrs by plate reader analysis. It counts as functional, organism-based.
The test system of data set [3] is Plasmodium falciparum. Kind of data set: Antiplasmodial activity against Plasmodium falciparum W2 infected in human RBC assessed as parasite growth inhibition measured as LDH activity after 72 hrs by plate reader analysis. It counts as functional, organism-based.
The nature of data set [4]: Retention time of the compound by HPLC analysis. It counts as physicochemical.
The test system of data set [5] is Vero. Kind of data set: Cytotoxicity against African green monkey Vero cells assessed as cell growth inhibition after 48 hrs by neutral red assay. It counts as cell-based. Conditions: Chlorocebus sabaeus; call rule not given here.
For data set [6], the system named is LLC-PK1. The data set is described as follows: Cytotoxicity against pig LLC-PK1 cells assessed as cell growth inhibition after 48 hrs by neutral red assay. The data set is classed as cell-based. The note with it: Sus scrofa, LLC-PK1, 48 h.
For data set [7], the system named is SK-MEL. The data set is described as follows: Cytotoxicity against human SK-MEL cells assessed as cell growth inhibition after 48 hrs by neutral red assay. It counts as cell-based.
The test system of data set [8] is KB. The data set is described as follows: Cytotoxicity against human KB cells assessed as cell growth inhibition after 48 hrs by neutral red assay. The data set is classed as cell-based.
In data set [9] the test system is BT-549. Kind of data set: Cytotoxicity against human BT549 cells assessed as cell growth inhibition after 48 hrs by neutral red assay. It counts as cell-based. Conditions: BT-549, 48 h.
Data set [10] deals with SK-OV-3. Kind of data set: Cytotoxicity against human SKOV3 cells assessed as cell growth inhibition after 48 hrs by neutral red assay. The data set is classed as cell-based. Conditions: SK-OV-3, 48 h.
A short description of data set [11]: Selectivity index, ratio of IC50 for African green monkey VERO cells to IC50 for Plasmodium falciparum D6.
Data set [12] is described as follows: Selectivity index, ratio of IC50 for pig LLC-PK1 cells to IC50 for Plasmodium falciparum D6.
The nature of data set [13]: Selectivity index, ratio of IC50 for African green monkey VERO cells to IC50 for Plasmodium falciparum W2.
A short description of data set [14]: Selectivity index, ratio of IC50 for pig LLC-PK1 cells to IC50 for Plasmodium falciparum W2.
[15] abbreviates: Plasmodium falciparum, D6, 72 h, read-out: IC50.
The mark [16] stands for this setting: Plasmodium falciparum, D6, 72 h, read-out: pIC50 (converted).
[17] abbreviates: Plasmodium falciparum, W2, 72 h, read-out: IC50.
Setting [18] is: Plasmodium falciparum, W2, 72 h, read-out: pIC50 (converted).

Values after ≈ are worked out from the molar mass of the structure shown.

As for `CN1CCN(C(=O)n2cc(-c3ccnc(N)n3)c3cc(Br)ccc32)CC1`, the MIC90 in data set [1] is 155 µM (≈ 64.2 µg/mL).
On to `Nc1nccc(-c2cn(C(=O)c3ccccc3)c3ccc(Br)cc23)n1`, for which the MIC90 in [1] is 163 µM (≈ 64 µg/mL).
On the same count and under the same terms, with `Cc1noc(C)c1Cn1cc(-c2ccnc(N)n2)c2ccccc21` the figure was 201 µM (≈ 64.1 µg/mL).
With `Cc1noc(C)c1Cn1cc(-c2ccnc(N)n2)c2cc(Br)ccc21`, in data set [1], the MIC90 amounted to 80.6 µM (≈ 32.1 µg/mL).
`Nc1nccc(-c2cn(Cc3ccc(Cl)s3)c3ccc(Br)cc23)n1`: in [1], the MIC90 was found to be 76.6 µM (≈ 32.2 µg/mL).
Same read-out and setting: with `COCCn1cc(-c2ccnc(N)n2)c2cc(Br)ccc21` the figure was 92.2 µM (≈ 32 µg/mL); with `O=C1NC(c2c[nH]c3ccc(Br)cc23)Nc2ccccc21` (configuration not stated), 23.4 µM (≈ 8.01 µg/mL).
On to `COc1ccc(S(=O)(=O)n2cc(-c3ccnc(N)n3)c3ccccc32)cc1`, for which the IC50 entry in data set [2] and in [3] was “Not Active” each time. Moreover, in data set [4], the Retention_time amounted to 8.49 min.
As to `COc1ccc(S(=O)(=O)n2cc(-c3ccnc(N)n3)c3cc(Br)ccc32)cc1`, the IC50 entry in data set [2] and in data set [3] was “Not Active” in each case. The compound also gave a Retention_time in [4] of 8.08 min.
For the compound `CC(C)(C)c1ccc(S(=O)(=O)n2cc(-c3ccnc(N)n3)c3ccccc32)cc1`, the IC50 entry in [2] and in [3] was “Not Active” throughout. This compound also displayed a Retention_time in [4] of 9.09 min.
On to `CC(C)(C)c1ccc(S(=O)(=O)n2cc(-c3ccnc(N)n3)c3cc(Br)ccc32)cc1`, for which the IC50 is 8.36 µM in data set [2] (setting [15]); 8.36 µM in data set [2] (setting [16]); 8.74 µM in data set [3] (setting [17]); 8.75 µM in data set [3] (setting [18]); more than 51 µM in data set [5]; more than 51 µM in data set [6]. Further, the IC50 in data set [7], in data set [8], in data set [9] and in data set [10] was more than 51 µM in each case. In addition, the “Ratio IC50” value in data set [11] is reported as more than 6.1; in data set [12] it was more than 6.1; in data set [13], more than 5.9; in data set [14] it was more than 5.9. The Retention_time in [4] was determined as 13.2 min.
Turning to `Cc1cc(C)c(S(=O)(=O)n2cc(-c3ccnc(N)n3)c3ccccc32)c(C)c1`, the IC50 entry in data set [2] and in data set [3] was “Not Active” throughout. In data set [4], this compound came in with a Retention_time of 8.95 min.
Consider `Cc1cc(C)c(S(=O)(=O)n2cc(-c3ccnc(N)n3)c3cc(Br)ccc32)c(C)c1`, for which the IC50 in data set [2] (setting [15]) is 8.12 µM; in [2] (setting [16]), 8.13 µM; in [3] (setting [17]) it was 8.36 µM; in [3] (setting [18]), 8.36 µM; in [5] it was more than 53 µM; in [6], more than 53 µM. For the same compound, the IC50 in data set [7], in [8], in data set [9] and in data set [10] was more than 53 µM throughout. For the same compound, the “Ratio IC50” value in data set [11] is more than 6.5; in data set [12], more than 6.5; in data set [13] it was more than 6.3; in [14] it was more than 6.3. In data set [4], this compound gave a Retention_time of 10.66 min.
For the compound `Cc1c(C)c(C)c(S(=O)(=O)n2cc(-c3ccnc(N)n3)c3ccccc32)c(C)c1C`, in data set [4], the Retention_time turned out to be 10 min.
`Cc1c(C)c(C)c(S(=O)(=O)n2cc(-c3ccnc(N)n3)c3cc(Br)ccc32)c(C)c1C`: the Retention_time in data set [4] was determined as 13.88 min.
Same read-out and setting: with `Nc1nccc(-c2cn(S(=O)(=O)c3ccc([N+](=O)[O-])cc3)c3ccccc23)n1` the figure was 7.43 min.
For the compound `Nc1nccc(-c2cn(S(=O)(=O)c3ccc([N+](=O)[O-])cc3)c3ccc(Br)cc23)n1`, the IC50 was 4.86 µM in data set [2] (setting [15]); 4.86 µM in data set [2] (setting [16]); 6.39 µM in data set [3] (setting [17]); 6.38 µM in data set [3] (setting [18]); more than 52 µM in [5]; more than 52 µM in [6]. Also, the IC50 in data set [7], in data set [8], in data set [9] and in [10] was more than 52 µM each time. For the same compound, the “Ratio IC50” value is more than 10.8 in [11], more than 10.8 in [12], more than 8.2 in data set [13] and more than 8.2 in data set [14]. The Retention_time in [4] worked out at 7.78 min.
Consider `Nc1nccc(-c2cn(S(=O)(=O)c3cccc(C(F)(F)F)c3)c3ccccc23)n1`, for which the IC50 entry in data set [2] and in data set [3] was “Not Active” each time. In [1], the MIC90 was 153 µM (≈ 64.1 µg/mL). The compound further came in with a Retention_time in [4] of 8.34 min.
Regarding `Nc1nccc(-c2cn(S(=O)(=O)c3ccc(C(F)(F)F)cc3)c3ccccc23)n1`, the IC50 entry in data set [2] and in data set [3] was “Not Active” throughout. The compound further gave a Retention_time in data set [4] of 9.15 min.
As to `Nc1nccc(-c2cn(S(=O)(=O)c3cc(C(F)(F)F)cc(C(F)(F)F)c3)c3ccccc23)n1`, the IC50 result in data set [2] and in data set [3] was “Not Active” throughout. The same compound gave a Retention_time in data set [4] of 7.87 min.
As for `Nc1nccc(-c2cn(S(=O)(=O)c3cc(C(F)(F)F)cc(C(F)(F)F)c3)c3ccc(Br)cc23)n1`, the IC50 entry in data set [2] and in [3] was “Not Active” throughout. The same compound gave a Retention_time in data set [4] of 10.48 min.
For the compound `Nc1nccc(-c2cn(S(=O)(=O)c3ccc4c(c3)OCCO4)c3ccccc23)n1`, the IC50 entry in data set [2] and in [3] was “Not Active” throughout. The same compound showed a Retention_time in data set [4] of 8.02 min.
Consider `Nc1nccc(-c2cn(S(=O)(=O)c3ccc4c(c3)OCCO4)c3ccc(Br)cc23)n1`, for which the IC50 result in data set [2] and in [3] was “Not Active” each time. The Retention_time in data set [4] is 8 min.
For the compound `Nc1nccc(-c2cn(S(=O)(=O)c3ccc(OC(F)(F)F)cc3)c3ccc(Br)cc23)n1`, the IC50 entry in [2] and in data set [3] was “Not Active” throughout. The MIC90 in [1] was 62.5 µM (≈ 32.1 µg/mL). Also, the Retention_time in data set [4] came out at 9.54 min.
On to `Nc1nccc(-c2cn(S(=O)(=O)c3ccc(F)cc3F)c3ccccc23)n1`, for which the IC50 entry in data set [2] and in data set [3] was “Not Active” throughout. This compound displayed a Retention_time in [4] of 7.32 min.
With `Nc1nccc(-c2cn(S(=O)(=O)c3ccc4ccccc4c3)c3ccccc23)n1`, the IC50 result in [2] and in data set [3] was “Not Active” in each case. The Retention_time in data set [4] is on record as 8.31 min.
As to `COc1ccc(S(=O)(=O)n2cc(-c3ccnc(N)n3)c3ccccc32)cc1OC`, the IC50 result in data set [2] and in data set [3] was “Not Active” each time. The Retention_time in data set [4] is 6.92 min.
Take `Nc1nccc(-c2cn(S(=O)(=O)c3ccc(Cl)cc3Cl)c3ccccc23)n1`: the IC50 entry in data set [2] and in data set [3] was “Not Active” each time. Besides, the Retention_time in data set [4] stood at 9.08 min.
`Nc1nccc(-c2cn(S(=O)(=O)c3ccc(Br)cc3)c3ccccc23)n1`: the IC50 entry in data set [2] and in data set [3] was “Not Active” each time. In [4], the Retention_time was found to be 8.45 min.
Take `COc1ccc(Br)cc1S(=O)(=O)n1cc(-c2ccnc(N)n2)c2ccccc21`: the IC50 result in data set [2] and in [3] was “Not Active” in each case. The compound further gave a Retention_time in data set [4] of 8.38 min.
For the compound `Nc1nccc(-c2cn(S(=O)(=O)c3ccc(I)cc3)c3ccccc23)n1`, the IC50 result in [2] and in data set [3] was “Not Active” each time. In data set [4], this compound gave a Retention_time of 8.8 min.
As for `Cc1ccsc1C(=O)n1cc(-c2ccnc(N)n2)c2ccccc21`, in data set [1], the MIC90 is 192 µM (≈ 64.1 µg/mL). In data set [4], this compound displayed a Retention_time of 8.48 min.
`O=C1NC(c2c[nH]c3ccc(I)cc23)Nc2ccccc21` (configuration not stated): the MIC90 in data set [1] is 5.2 µM (≈ 2.02 µg/mL).
In the case of `Nc1nccc(-c2c[nH]c3ccccc23)n1`, the “Ratio IC50” value is recorded as more than 12.3 in data set [11], more than 11.1 in data set [12], more than 26.8 in data set [13] and more than 24.1 in [14]. For the same compound, the MIC90 in [1] stood at 305 µM (≈ 64.1 µg/mL).
For `COc1cccc2c1C(=O)c1c(O)c3c(c(O)c1C2=O)C[C@@](O)(C(=O)CO)C[C@@H]3O[C@H]1C[C@H](N)[C@H](O)[C@H](C)O1` [DOXORUBICIN], the IC50 in data set [5] was more than 9 µM; in [9], 1.6 µM.
Regarding `Nc1nccc(-c2c[nH]c3ccc(Br)cc23)n1` [MERIDIANIN C], the “Ratio IC50” value in data set [11] was more than 6; in data set [12], more than 6; in data set [13] it was more than 7.4; in data set [14], more than 7.4. The MIC90 in data set [1] is 111 µM (≈ 32.1 µg/mL).
Turning to `CO[C@H]1/C=C/O[C@@]2(C)Oc3c(C)c(O)c4c(O)c(c(/C=N/N5CCN(C)CC5)c(O)c4c3C2=O)NC(=O)/C(C)=C\C=C\[C@H](C)[C@H](O)[C@@H](C)[C@@H](O)[C@@H](C)[C@H](OC(C)=O)[C@@H]1C` [RIFAMPIN], the MIC90 in data set [1] is 0.07 µM (≈ 0.0576 µg/mL).
